We go through 19 substances from US8691528B2, “Cell penetrating peptide” (Mitsubishi Tanabe Pharma Corporation, priority 2005, dated 2014).

This test relates to CHO cells. Put plainly: Test of translocation of fluorescence-labeled peptides into CHO cells (FACS and confocal microscopic analysis). It is filed as cell-based. Particulars: for contribution of the alanine-substituted amino acid to the intracellular translocation: comprehensive alanine substitution on the basis of KSH1-1. The method, then:
Each peptide solution, adjusted to 1 mM, was diluted with a medium to three levels, 100 μM, 50 μM, and 25 μM, and added to cells. Three kinds of cells were used: CHO cells, HeLa cells, and Jurkat cells. After each peptide solution was added, the cells were incubated for 1 hour. After the cells were washed with PBS three times, 100 μL of 0.25% trypsin-1 mM EDTA solution was added, and trypsinization was performed at room temperature for 5 minutes. After 400 μL of PBS (10% FCS) was added to stop the trypsinization, the cells were washed with 1 mL of HBSS three times. After the washing, the cells were suspended in 500 μL of PBS (10% FCS) and subjected to flowcytometry (hereinafter, FACS) analysis using FACS Calibur (Becton Dickinson).
Each peptide was synthesized, fluorescently labeled, purified and dissolved in the same manner as Example 1-2, a test of translocation into CHO cells was performed, and an evaluation was performed by confocal microscopic analysis and FACS. FACS analysis was performed in the same manner as Example 1-3. For the KSH1 peptide and modified PTD sequences, i.e., KSH1-1 to KSH1-9 peptides (SEQ ID NOS:1 to 9 in the sequence listing), fluorescence intensities determined by FACS analysis are shown in FIG. 6. The peptide addition concentrations were 50 μM, 25 μM, 12.5 μM and 6.5 μM.
To determine which amino acids are important to the intracellular translocation, comprehensive alanine substitution was performed on the basis of KSH1-1 to design KSH1-11 (SEQ ID NO:11 in the sequence listing) to KSH1-23 (SEQ ID NO:22 in the sequence listing) and KSH1-35 (SEQ ID NO:32 in the sequence listing) (FIG. 7). Each peptide was synthesized, fluorescently labeled, purified and dissolved in the same manner as Example 1-2, a test of translocation into CHO cells was performed, and an evaluation was performed by confocal microscopic analysis and FACS. FACS analysis was performed in the same manner as Example 1-3. For KSH1 and modified PTD sequences, i.e., KSH11-11 to 23 and KSH1-35, fluorescence intensities determined by FACS analysis are shown in FIG. 8. The peptide addition concentrations were 50 μM, 25 μM, 12.5 μM and 6.5 μM.
Each peptide was synthesized, fluorescently labeled, purified and dissolved in the same manner as Example 1-2, a test of translocation into CHO cells was performed, and an evaluation was performed by confocal microscopic analysis and FACS analysis. FACS analysis was performed in the same manner as Example 1-3. For KSH1 and modified PTD sequences, i.e., KSH11-24 to 1-26 and KSH1-28 to 1-30, fluorescence intensities determined by FACS analysis are shown in FIG. 10. The peptide addition concentrations were 50 μM, 25 μM, 12.5 μM and 6.5 μM.
Each peptide was synthesized, fluorescently labeled, purified and dissolved in the same manner as Example 1-2, a test of translocation into CHO cells was performed, and an evaluation was performed by confocal microscopic analysis and FACS analysis. FACS analysis was performed in the same manner as Example 1-3. For KSH1 and modified PTD sequences, i.e., KSH1-27, KSH1-33, KSH1-34 and KSH1-36, fluorescence intensities determined by FACS analysis are shown in FIG. 12. The peptide addition concentrations were 50 μM, 25 μM, 12.5 μM and 6.5 μM.
Each peptide was synthesized, fluorescently labeled, purified and dissolved in the same manner as Example 1-2, and an intracellular translocation test in CHO cells was performed by FACS analysis. Used for positive control were a PTD sequence derived from HIV TAT ([…] in the sequence listing) and the KSH1 peptide; used for negative control was a peptide sequence lacking intracellular transferability (SEQ ID NO:57 in the sequence listing).

[1] abbreviates: 50 μM, 25 μM, 12.5 μM and 6.5 μM.

“Also recorded” adds a separate entry of the source.

For “KSH1-2: KSH1 with proline substituted with alanine (KLWMRWYSATTRRYG; Designed peptide to act as PTD(Protein Transduction Domain))”, the “intracellular translocation compared with KSH1 (in words)” value under setting [1] is “no influence on the intracellular transferability was observed”.

Consider “KSH1-3: KSH1 with the 13th arginine substituted with alanine (KLWMRWYSPTTRAYG; Designed peptide to act as PTD(Protein Transduction Domain))”, for which the “intracellular translocation compared with KSH1 (in words)” value under setting [1] was “decreased remarkably; also recorded: became observable very little”. Further, where the note is “detected only at this concentration”, the “concentration at which intracellular translocation was detected” value stood at 50 µM.

For “KSH1-4: modified KSH1 with three tryptophans uniformly arranged on the wheel structure (KLWMRWWSPTTRRYG; Designed peptide to act as PTD(Protein Transduction Domain))”, the “intracellular translocation compared with KSH1 (in words)” value under setting [1] is “did not change”.

With “KSH1-6: KSH1 with the two tryptophans both substituted with alanine (KLAMRAYSPTTRRYG; Designed peptide to act as PTD(Protein Transduction Domain))”, the “intracellular translocation compared with KSH1 (in words)” value under setting [1] is on record as “no longer observable at all”.

Regarding “KSH1-11: KSH1-1 with the 1st arginine substituted with alanine (ALWMRWYSPTTRRYG; Designed peptide to act as PTD(Protein Transduction Domain))”, the “contribution of the alanine-substituted amino acid to the intracellular translocation” value (“contribution” for short) was “minor contribution”. Also, the “intracellular translocation compared with KSH1-1 (in words)” value under setting [1] is “did not decrease a lot”.

For the substance “KSH1-15: alanine substitution form of KSH1-1 (an arginine substituted) (RLWMAWYSPTTRRYG; Designed peptide to act as PTD(Protein Transduction Domain))”, the “intracellular translocation compared with KSH1-1 (in words)” value under setting [1] was “decreased”.

Regarding “KSH1-17: KSH1-1 with the 7th tyrosine substituted with alanine (RLWMRWASPTTRRYG; Designed peptide to act as PTD(Protein Transduction Domain))”, the “intracellular translocation compared with KSH1-1 (in words)” value under setting [1] is “almost no intracellular translocation was observed”.

As for “KSH1-19: alanine substitution form of KSH1-1 (RLWMRWYSGTTRRYG; Designed peptide to act as PTD(Protein Transduction Domain))”, the “contribution” value is “minor contribution”.

As for “KSH1-22: alanine substitution form of KSH1-1 (an arginine substituted) (RLWMRWYSPTTARYG; Designed peptide to act as PTD(Protein Transduction Domain))”, the “intracellular translocation compared with KSH1-1 (in words)” value under setting [1] is on record as “decreased”.

With “KSH1-23: alanine substitution form of KSH1-1 (RLWMRWYSPTTRRAG; Designed peptide to act as PTD(Protein Transduction Domain))”, the “contribution” value is on record as “minor contribution”.

Consider “KSH1-24: two tryptophans substituted with leucine (RLLMRLYSPTTRRYG; Designed peptide to act as PTD(Protein Transduction Domain))”, for which the “intracellular translocation compared with KSH1-1 (in words)” value under setting [1] is given as “decreased”.

For the substance “KSH1-25: two tryptophans substituted with phenylalanine (RLFMRFYSPTTRRYG; Designed peptide to act as PTD(Protein Transduction Domain))”, under setting [1], the “intracellular translocation compared with KSH1-1 (in words)” value is given as “nearly the same as KSH1-1”.

With “KSH1-26: two tryptophans substituted with isoleucine (RLIMRIYSPTTRRYG; Designed peptide to act as PTD(Protein Transduction Domain))”, the “intracellular translocation compared with KSH1-1 (in words)” value under setting [1] is “nearly the same as KSH1-1”.

In the case of “KSH1-27: serine and threonine all substituted with alanine (RLWMRWYAPAARRYG; Designed peptide to act as PTD(Protein Transduction Domain))”, the “intracellular translocation compared with KSH1-1 (in words)” value under setting [1] is recorded as “decreased slightly”. The “translocation compared with KSH1-1 (in words)” value (at low concentrations) is reported as “nearly the same”.

“KSH1-29: two tryptophans substituted with valine (RLVMRVYSPTTRRYG; Designed peptide to act as PTD(Protein Transduction Domain))”: the “intracellular translocation compared with KSH1-1 (in words)” value under setting [1] was “decreased slightly”.

As to “KSH1-30: two tryptophans substituted with tyrosine (RLYMRYYSPTTRRYG; Designed peptide to act as PTD(Protein Transduction Domain))”, the “intracellular translocation compared with KSH1-1 (in words)” value under setting [1] is recorded as “good intracellular translocation was exhibited; also recorded: good results”.

Take “KSH1-34: 14th tyrosine in the vicinity of the 3rd tryptophan substituted with arginine (RLWMRWYSPTTRARG; Designed peptide to act as PTD(Protein Transduction Domain))”: under setting [1], the “intracellular translocation compared with KSH1-1 (in words)” value is “decreased considerably”.

Regarding “KSH1-35: alanine substitution form of KSH1-1 (RLWMRWYSPTTRRYA; Designed peptide to act as PTD(Protein Transduction Domain))”, the “contribution” value is recorded as “minor contribution”.

Take “KSH1-36: the reversed-chain peptide of KSH1 (GYRRTTPSYWRMWLR; Designed peptide to act as PTD(Protein Transduction Domain))”: the “intracellular translocation compared with KSH1 (in words)” value is, setting by setting: (at high concentrations) “accentuated intracellular translocation”; (at low concentrations) “tended to decrease”.
